Common to all, as to type: physicochemical
The nature of data set [1]: Solubility studies: 0.1 g marker candidate in 0.9 g solvent, solution stability at 60 C, room temperature and -10 C. Here is the method:
Solutions were made from 0.1 grams of marker candidate and 0.9 grams of solvent. The mixtures were warmed briefly to 60° C. to completely dissolve the marker candidate, then the solutions were cooled to room temperature. The solutions were then placed into a −10° C. freezer, and the stability of the solutions was monitored for at least 7 days.
DPGME is dipropylene glycol mono-methyl ether and NMP is N-methylpyrrolidone; AROMATIC 200 and AROMATIC 150 are mixed aromatic solvents available from Exxon Mobil Corp.

Data set [2] can be described thus: Stability and extractability of marker in xylenes solution against laundering agents, analysed by GC. The conditions noted are these: 2000 mg/kg in xylenes, room temperature, 8 hours.
Data set [3] in a line: Sunlight stability of marker solution, checked by GC.
Setting [4] is: 75:25 Aromatic 200H: cyclohexanone.
The mark [5] stands for this setting: 75:25 Aromatic 200H: o-sec-butylphenol.

We go through seven compounds from patent US9422493B2, “Tritylated alkyl aryl ethers” (Rohm and Haas Company, priority 2012, dated 2016).

Turning to `CCCCCCCCCCCCOc1c(C(C)CC)cc(C(c2ccccc2)(c2ccccc2)c2ccccc2)cc1C(C)CC` (centres unmarked), the “SOLUBILITY BEHAVIOR −10 C.” value in data set [1] (setting [4]) and in data set [1] (setting [5]) was “sol 7D sol 7D” each time.

Consider `CCCCCCCCCCCCOc1ccc(C(c2ccccc2)(c2ccccc2)c2ccccc2)cc1C(C)(C)C`, for which the “SOLUBILITY BEHAVIOR −10 C.” value in data set [1] (setting [4]) and in data set [1] (setting [5]) was “sol 7D sol 7D” each time.

Take `CCCCCCCCCCCCOc1c(C(C)(C)C)cc(C(c2ccccc2)(c2ccccc2)c2ccccc2)cc1C(C)(C)C`: the “SOLUBILITY BEHAVIOR −10 C.” value in data set [1] (setting [4]) and in data set [1] (setting [5]) was “sol 7D sol 7D” each time.

On to `CCCCCCCCCCCCOc1c(C(C)(C)C)cc(C(C)(C)C)cc1C(c1ccccc1)(c1ccccc1)c1ccccc1`, for which the “SOLUBILITY BEHAVIOR −10 C.” value in data set [1] (setting [4]) and in data set [1] (setting [5]) was “xtls 6D xtls 6D” in each case.

With `CCCCCCCCCCCCOc1ccc(C(c2ccccc2)(c2ccccc2)c2ccccc2)cc1C(C)C`, the “SOLUBILITY BEHAVIOR −10 C.” value in data set [1] (setting [4]) is “sol 7D”; in data set [1] (setting [5]) it was “xtls 3D”.

For `CCCCCCCCCCCCOc1c(C(C)C)cc(C(c2ccccc2)(c2ccccc2)c2ccccc2)cc1C(C)C`, the “SOLUBILITY BEHAVIOR −10 C.” value in data set [1] (setting [4]) was “xtls 4D”.

As for `CCCCCCCCCCOc1ccc(C(c2ccccc2)(c2ccccc2)c2ccccc2)cc1C(C)CC` (centres unmarked) [DecTsBuPh], the “% Change” value was −0.76% in data set [2] (2% Charcoal); 1.08% in data set [2] (5% Bleach); −0.04% in data set [2] (5% H2SO4, 5% by weight); 0.10% in data set [2] (5% NaOH, 5% by weight, GC vs stock solution); 0.60% in data set [2] (50% NaOH, 5% by weight); −1.84% in data set [2] (98% H2SO4, 5% by weight). In addition, the “% Change” value in data set [2] (Fuller's Earth) was 0.79%; in data set [2] (Iron Specks (2% metal specs wt/wt)), 1.76%; in data set [3] (Apr. 5, 2012), −1.90%; in data set [3] (Apr. 13, 2012) it was 2.40%; in data set [3] (Apr. 23, 2012), 0.90%; in data set [3] (May 8, 2012), −1.40%. In addition, the “% Change” value in data set [3] (May 15, 2012) was found to be 1.80%. The “[…] −10 C.” value in data set [1] (Aromatic 200) and in data set [1] (DPGDME) was “sol 33D” throughout.
